Measured values taken from patent publication US20130230459A1, “RADIOLABELLED mGluR2 PET LIGANDS” (Janssen Pharmaceuticals, Inc., priority 2010, published 2013).
“And” between values parts separate entries of the source, which are not always exact repeats. Equal entries are not always repeated.

Tests used:
Assay type in all cases: in vivo, Wistar rats
[1] = Biodistribution studies of 11C tracers; conditions: for SUV Blood / SUV Cerebellum / SUV Cerebrum total / SUV Cortex / SUV Hippocampus / SUV Striatum: normalized for body weight;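 on Total brain uptake: percentage of injected dose (% ID)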
Method in brief: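 Healthy male Wistar rats (n=3 per time point) received about 11 or 22 MBq tracer i.v. via tail vein under isoflurane; sacrificed at 2, 30 and 60 min p.i. Gamma counting of blood and organs gave %ID and %ID/g, with blood taken as 7% of body mass.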

[2] = Perfused brain radiometabolite analysis (30 min p.i.)
[3] = Plasma radiometabolite analysis (30 min p.i.); conditions: n = 2

## [11CH3]Oc1cc(F)cc(F)c1C1CCN(c2ccn3c(CC4CC4)nnc3c2Cl)CC1 [[^11C]B-7, 8-chloro-3-(cyclopropylmethyl)-7-[4-[2,4-difluoro-6-[^11C]methoxyphenyl]-1-piperidinyl]-1,2,4-triazolo[4,3-a]pyridine]
[1]; 2 min p.i.
  % ID Blood: 5.4 % ID and 5.4 ± 0.3 % ID
  % ID Carcass: 40 % ID and 39.8 ± 2.8 % ID
  % ID Cerebellum: 0.18 % ID and 0.179 ± 0.043 % ID
  % ID Cerebrum total: 0.53 % ID and 0.529 ± 0.098 % ID
  % ID Cortex: 0.081 ± 0.011 % ID
  % ID Heart: 4.1 ± 0.4 % ID
  % ID Hippocampus: 0.020 ± 0.004 % ID
  % ID Intestines: 8.2 ± 1.1 % ID
  % ID Kidneys: 6.5 ± 0.7 % ID
  % ID Liver: 33.4 ± 2.0 % ID
  % ID Lungs: 1.8 ± 0.7 % ID
  % ID Rest of cerebrum: 0.428 ± 0.084 % ID
  % ID Spleen + Pancreas: 1.3 ± 0.2 % ID
  % ID Stomach: 1.5 ± 0.2 % ID
  % ID Striatum: 0.028 ± 0.008 % ID
  % ID Urine: 0.1 ± 0.0 % ID
  Total brain uptake: 0.75 % ID and 0.75 ± 0.1 % ID
  SUV Blood: 0.80 ± 0.00
  SUV Cerebellum: 1.53 ± 0.03
  SUV Cerebrum total: 1.08 ± 0.02
  SUV Cortex: 1.14 ± 0.03
  SUV Hippocampus: 0.85 ± 0.02
  SUV Striatum: 1.13 ± 0.03
[1]; 30 min p.i.
  % ID Blood: 3.5 ± 0.2 % ID
  % ID Carcass: 64.9 ± 4.2 % ID
  % ID Cerebellum: 0.198 ± 0.026 % ID
  % ID Cerebrum total: 0.718 ± 0.142 % ID
  % ID Cortex: 0.120 ± 0.018 % ID
  % ID Heart: 1.4 ± 0.2 % ID
  % ID Hippocampus: 0.030 ± 0.003 % ID
  % ID Intestines: 10.2 ± 1.5 % ID
  % ID Kidneys: 2.8 ± 0.3 % ID
  % ID Liver: 14.6 ± 1.2 % ID
  % ID Lungs: 0.6 ± 0.1 % ID
  % ID Rest of cerebrum: 0.523 ± 0.117 % ID
  % ID Spleen + Pancreas: 1.2 ± 0.3 % ID
  % ID Stomach: 1.4 ± 0.2 % ID
  % ID Striatum: 0.045 ± 0.014 % ID
  % ID Urine: 0.4 ± 0.1 % ID
  Total brain uptake: 0.93 ± 0.2 % ID
  SUV Blood: 0.50 ± 0.00
  SUV Cerebellum: 2.0 and 2.00 ± 0.03
  SUV Cerebrum total: 1.51 ± 0.03
  SUV Cortex: 1.72 ± 0.05
  SUV Hippocampus: 1.20 ± 0.01
  SUV Striatum: 1.70 ± 0.03
[1]; 60 min p.i.
  % ID Blood: 3.7 % ID and 3.7 ± 0.4 % ID
  % ID Carcass: 61.5 ± 5.7 % ID
  % ID Cerebellum: 0.163 ± 0.011 % ID
  % ID Cerebrum total: 0.543 ± 0.014 % ID
  % ID Cortex: 0.059 ± 0.007 % ID
  % ID Heart: 0.9 ± 0.1 % ID
  % ID Hippocampus: 0.022 ± 0.003 % ID
  % ID Intestines: 13.4 ± 3.3 % ID
  % ID Kidneys: 2.0 ± 0.3 % ID
  % ID Liver: 15.3 ± 2.1 % ID
  % ID Lungs: 0.7 ± 0.1 % ID
  % ID Rest of cerebrum: 0.435 ± 0.004 % ID
  % ID Spleen + Pancreas: 0.9 ± 0.0 % ID
  % ID Stomach: 2.4 ± 0.7 % ID
  % ID Striatum: 0.026 ± 0.007 % ID
  % ID Urine: 0.5 ± 0.2 % ID
  % ID present in liver and intestines: 28.7 % ID
  % ID present in the urinary system: 2.5 % ID
  Total brain uptake: 0.72 ± 0.0 % ID
  SUV Blood: 0.50 ± 0.01
  SUV Cerebellum: 1.50 ± 0.01
  SUV Cerebrum total: 1.19 ± 0.01
  SUV Cortex: 1.10 ± 0.01
  SUV Hippocampus: 0.98 ± 0.01
  SUV Striatum: 1.43 ± 0.01
[2]
  intact tracer in perfused cerebellum: 95.5%
  intact tracer in perfused cerebrum: 92.9%
  polar metabolite in perfused cerebellum: 4.5%
  polar metabolite in perfused cerebrum: 7.1%
  recovered radioactivity present as intact tracer, on average, in both cerebrum and cerebellum: about 90%
[3]
  Intact tracer in rat plasma: 30.8 ± 7.0%
  Polar metabolites in rat plasma: 69.2 ± 7.0%
